# Source: patent US4540700A, “Treatment of diabetic complications with certain spiro-imidazolidine-diones” (Alcon Laboratories, Inc., priority 1984, dated 1985)
# System: cataract formation in galactocemic rats
# Assay: in vivo dose response by intubation (per oral) in galactocemic rats, cataract (vacuole) formation
# Design: species or system Charles River CD (Sprague-Dawley derived) male rats
# Method: B. In vivo dose response studies were conducted to test the in vivo activity of the following compounds by intubation (per oral) in galactocemic rats on a 30% galactose diet previously described:
# Stock suspensions of the test compounds and all dilutions of the compound were formulated with 0.03% by weight Tween 80.
# Healthy, Charles River CD (outbred albino, Sprague-Dawley derived) male rats, aged 20-30 days, without observable ocular defects and ranging in weight from 35-45 grams, were acclimated to experimental conditions (in quarantine) for two days prior to beginning the study.
# Rats were individually assigned to one of twenty-three groups according to a random number schedule. Two rats, belonging to the same drug-diet treatment group, were housed per cage. Treatment and control groups consisted of six (6) rats each with no replacement in the event of death, and were designated as follows:
# Lenses of all eyes were examined with a hand-held ophthalmoscope in the early stages of cataract development and a penlight for the stages, snowflake-like, snowflake, and nuclear cataract. Lens grading occurred every day for the first ten study days, and then every other day until study Day 14.
# The relative potency determination was made at 7 drug levels over half log dose intervals. The response (percent cataracts formed and/or the time to cataract formation) was plotted against mg/kg and/or moles/kg.
# The study was directed to the suppression and/or elimination of the initial stages of cataract development characterized by vacuoles or snowflake-likeopacities only. It was assumed therefore that suppression and/or elimination of vacuoles or lens opacification by the test drugs affects the transport, absorption and/or metabolism of galactose in such a manner as to prevent subsequent osmotic disturbances normally leading to tissue degeneration and advanced cataract. Advanced cataract defined as stages 2-4 of the Sipple classification was assumed to be of secondary importance to the etiology of cataract inhibition.
# In the event where cataract stage other than vacuole formed, such as snowflake-like opacities, this cataract was counted similarly as vacuole in percent cataract formation.
# This study yielded this expected effect in the control groups.
# All animals were fed Purina Laboratory Chow and water, ad libitum, for the two day acclimation period. All drugs were dosed orally by intubation using an animal feeding needle (Popper and Sons), 18 or 20 gauge, attached to a 1 or 3 ml syringe. Once the dosing time schedule was established, the schedule was followed throughout the study to compensate for any diurnal variation.
# The animals were kept on a twelve hour day/night cycle. The temperature and humidity were determined each day at the scheduled dosing time of 1:00 p.m.
# The animals were weighed every other day and adjustments to dosage amounts to compensate for weight gain were made each day prior to the dose time. All food was routinely withheld from all animal groups for four hours (9:00 a.m.) prior to the drug dose and restored two hours (3:00 p.m.) post-dose. Otherwise sufficient amounts of chow or diet mixture were maintained in the food hopper to allow the animals to eat ad libitum. There were two days of drug dosage with the animals remaining on Purina Laboratory Chow (Days 1 and 2). The 30% galactose diet mixture was introduced to the animals two hours post-dose on Day 3 which constituted Day 1 of the study.
# All eyes were examined with a hand-held ophthalmoscope and/or penlight at the times designated in the Experimental Design section.
# It has been found in previous studies that dilation of the eye with a mydriactic (i.e. Mydriacyl) is not necessary for accurate grading, due to the semi-transparent nature of the rat iris. In the early stages (i.e., grades -, ±, and +) the lens was observed by reflecting the ophthalmoscope beam off the retina back through the lens and iris. Using this technique, vacuoles appear as dark, almost opaque patches. […]
smiles,measurement,setting,value
"O=C1NC(=O)C2(N1)c1cc(F)ccc1-c1ccc(F)cc12 [M, Spiro-[2,7-difluorofluoren-9,4'-imidazolidine]-2',5'-dione]",Percent of Rat Eyes With at Least Vacuoles Formed,"0.126 mg/kg p.o., Day 0",0%
same,Percent of Rat Eyes With at Least Vacuoles Formed,"0.126 mg/kg p.o., Day 1",0%
same,Percent of Rat Eyes With at Least Vacuoles Formed,"0.126 mg/kg p.o., Day 2",0%
same,Percent of Rat Eyes With at Least Vacuoles Formed,"0.126 mg/kg p.o., Day 3",0%
same,Percent of Rat Eyes With at Least Vacuoles Formed,"0.126 mg/kg p.o., Day 4",0%
same,Percent of Rat Eyes With at Least Vacuoles Formed,"0.126 mg/kg p.o., Day 5",0%
same,Percent of Rat Eyes With at Least Vacuoles Formed,"0.126 mg/kg p.o., Day 6",8%
same,Percent of Rat Eyes With at Least Vacuoles Formed,"0.126 mg/kg p.o., Day 7",25%
same,Percent of Rat Eyes With at Least Vacuoles Formed,"0.126 mg/kg p.o., Day 8",67%
same,Percent of Rat Eyes With at Least Vacuoles Formed,"0.126 mg/kg p.o., Day 9",67%
same,Percent of Rat Eyes With at Least Vacuoles Formed,"0.126 mg/kg p.o., Day 10",67%
same,Percent of Rat Eyes With at Least Vacuoles Formed,"0.126 mg/kg p.o., Day 12",67%
same,Percent of Rat Eyes With at Least Vacuoles Formed,"0.126 mg/kg p.o., Day 14",75%
same,Percent of Rat Eyes With at Least Vacuoles Formed,"0.4 mg/kg p.o., Day 0",0%
same,Percent of Rat Eyes With at Least Vacuoles Formed,"0.4 mg/kg p.o., Day 1",0%
same,Percent of Rat Eyes With at Least Vacuoles Formed,"0.4 mg/kg p.o., Day 2",0%
same,Percent of Rat Eyes With at Least Vacuoles Formed,"0.4 mg/kg p.o., Day 3",0%
same,Percent of Rat Eyes With at Least Vacuoles Formed,"0.4 mg/kg p.o., Day 4",0%
same,Percent of Rat Eyes With at Least Vacuoles Formed,"0.4 mg/kg p.o., Day 5",0%
same,Percent of Rat Eyes With at Least Vacuoles Formed,"0.4 mg/kg p.o., Day 6",0%
same,Percent of Rat Eyes With at Least Vacuoles Formed,"0.4 mg/kg p.o., Day 7",0%
same,Percent of Rat Eyes With at Least Vacuoles Formed,"0.4 mg/kg p.o., Day 8",0%
same,Percent of Rat Eyes With at Least Vacuoles Formed,"0.4 mg/kg p.o., Day 9",0%
same,Percent of Rat Eyes With at Least Vacuoles Formed,"0.4 mg/kg p.o., Day 10",0%
same,Percent of Rat Eyes With at Least Vacuoles Formed,"0.4 mg/kg p.o., Day 12",0%
same,Percent of Rat Eyes With at Least Vacuoles Formed,"0.4 mg/kg p.o., Day 14",0%
same,Percent of Rat Eyes With at Least Vacuoles Formed,"1.26 mg/kg p.o., Day 0",0%
same,Percent of Rat Eyes With at Least Vacuoles Formed,"1.26 mg/kg p.o., Day 1",0%
same,Percent of Rat Eyes With at Least Vacuoles Formed,"1.26 mg/kg p.o., Day 2",0%
same,Percent of Rat Eyes With at Least Vacuoles Formed,"1.26 mg/kg p.o., Day 3",0%
same,Percent of Rat Eyes With at Least Vacuoles Formed,"1.26 mg/kg p.o., Day 4",0%
same,Percent of Rat Eyes With at Least Vacuoles Formed,"1.26 mg/kg p.o., Day 5",0%
same,Percent of Rat Eyes With at Least Vacuoles Formed,"1.26 mg/kg p.o., Day 6",0.0%
same,Percent of Rat Eyes With at Least Vacuoles Formed,"1.26 mg/kg p.o., Day 6, listed as 2,7-difluoro",0%
same,Percent of Rat Eyes With at Least Vacuoles Formed,"1.26 mg/kg p.o., Day 7",0%
same,Percent of Rat Eyes With at Least Vacuoles Formed,"1.26 mg/kg p.o., Day 8",0%
same,Percent of Rat Eyes With at Least Vacuoles Formed,"1.26 mg/kg p.o., Day 9",0%
same,Percent of Rat Eyes With at Least Vacuoles Formed,"1.26 mg/kg p.o., Day 10",0%
same,Percent of Rat Eyes With at Least Vacuoles Formed,"1.26 mg/kg p.o., Day 12",0%
same,Percent of Rat Eyes With at Least Vacuoles Formed,"1.26 mg/kg p.o., Day 14",0%
same,Percent of Rat Eyes With at Least Vacuoles Formed,"4.0 mg/kg p.o., Day 0",0%
same,Percent of Rat Eyes With at Least Vacuoles Formed,"4.0 mg/kg p.o., Day 1",0%
same,Percent of Rat Eyes With at Least Vacuoles Formed,"4.0 mg/kg p.o., Day 2",0%
same,Percent of Rat Eyes With at Least Vacuoles Formed,"4.0 mg/kg p.o., Day 3",0%
same,Percent of Rat Eyes With at Least Vacuoles Formed,"4.0 mg/kg p.o., Day 4",0%
same,Percent of Rat Eyes With at Least Vacuoles Formed,"4.0 mg/kg p.o., Day 5",0%
same,Percent of Rat Eyes With at Least Vacuoles Formed,"4.0 mg/kg p.o., Day 6",0.0%
same,Percent of Rat Eyes With at Least Vacuoles Formed,"4.0 mg/kg p.o., Day 6, listed as 2,7-difluoro",0%
same,Percent of Rat Eyes With at Least Vacuoles Formed,"4.0 mg/kg p.o., Day 7",0.0%
same,Percent of Rat Eyes With at Least Vacuoles Formed,"4.0 mg/kg p.o., Day 7, listed as 2,7-difluoro",0%
same,Percent of Rat Eyes With at Least Vacuoles Formed,"4.0 mg/kg p.o., Day 8",0.0%
same,Percent of Rat Eyes With at Least Vacuoles Formed,"4.0 mg/kg p.o., Day 8, listed as 2,7-difluoro",0%
